Entries after “also recorded” stand apart in the source; their conditions may differ.
Key:
[1] = system: HeLa (human uterine cervical cancer cell line); experiment: Cell proliferation assay (WST-8) on HeLa cells; assay type: cell-based; conditions: for suppression of HeLa cell proliferation: 72 hours, various concentrations
Experimental: (§1) Next, the synthesized compounds were verified by WST-8 assay for their ability to suppress cancer cell proliferation.
(§2) Cell lines of HeLa (human uterine cervical cancer cell line), LOVO, RKO and SW480 (each of which was a human large bowel cancer cell line) were each cultured at 37° C. under 5% carbon dioxide conditions using Dulbecco's modified Eagle's medium (DMEM, Nacalai Tesque, Inc., Japan) supplemented with 10% fetal bovine serum (FBS: JRH bioscience, USA), antibiotics (50 U/ml penicillin and 50 μg/ml streptomycin) and 1 mM sodium pyruvate. Single-layered cells grown to 80-90% confluency on 10 cm cell culture dishes were washed with D-PBS(−) (Nacalai Tesque, Inc., Japan) and then released from the dishes by being treated with a phenol red-containing 2.5 g/L-Trypsine/1 mmol/L EDTA solution (Nacalai Tesque, Inc., Japan). The released cells were adjusted and maintained in fresh medium.
(§3) Each cell line seeded at 3×10^3 cells/well in a MICROTEST tissue culture plate (96 well, FALCON) was cultured at 37° C. under 5% carbon dioxide conditions for 24 hours, and then cultured in the presence of various concentrations of PI polyamide for an additional 72 hours. After completion of the culture, 10 μl of viable cell counting reagent SF (Nacalai Tesque, Inc., Japan) was added to each well and the absorbance at 450 nm was measured by ARVO EX (PerkinElmer). During the period from reagent addition until assay, incubation was continued at 37° C. in the presence of 5% CO2 until the absorbance reached about 1.2 to 2.0 in the control sample where only 50% DMSO was added to the cells.

[2] = system: p16 gene expression (p16 RNA); experiment: Real-time RT-PCR of p16 gene expression in HeLa cells; assay type: cell-based, human; conditions: 48 hours, even at 10 nM, GAPDH internal standard, FIG. 6
Experimental: To verify the effect on p16 gene expression, real-time RT-PCR was performed. HeLa cells seeded at 1.5×10^4 cells per well in 24-well plates were cultured for 48 hours in the presence of various concentrations of the polyamides, and RNA was then collected by ISOGEN (Nippon Gene Co., Ltd., Tokyo, Japan). The procedures used followed the manufacturer's instructions. The isolated total RNA was measured for its concentration with Nanodrop (Nanoprop, USA) and used for cDNA synthesis with a Primescript RT reagent kit (TAKARA BIO, Shiga, Japan). The prepared cDNA was confirmed for the expression level of p16 RNA in a Thermal Cycler Dice Real-time System TP-800 (TAKARA BIO, Shiga, Japan) with SYBR premix EX Tag (TAKARA BIO, Shiga, Japan). In this case, the following primers were used in PCR reaction for p16 amplification.
Likewise, for amplification of human endogenous glyceraldehyde-3-phosphate dehydrogenase (GAPDH) used as an internal standard, the following primers were used in PCR reaction.

[3] = system: RKO (human large bowel cancer cell line); experiment: Cell proliferation assay (WST-8) on RKO cells; assay type: cell-based
Experimental: as §1, §2, §3

[4] = system: LOVO (human large bowel cancer cell line); experiment: Cell proliferation assay (WST-8) on LOVO cells; assay type: cell-based; conditions: 72 hours
Experimental: as §1
(§4) Cell lines of HeLa (human uterine cervical cancer cell line), LOVO, RKO and SW480 (each of which was a human large bowel cancer cell line) were each cultured at 37° C. under 5% carbon dioxide conditions using Dulbecco's modified Eagle's medium (DMEM, Nacalai Tesque, Inc., Japan) supplemented with 10% fetal bovine serum (FBS: JRH bioscience, USA), antibiotics (50 U/ml penicillin and 50 μg/ml streptomycin) and 1 mM sodium pyruvate. […]
as §3

[5] = system: histone deacetylase (HDAC); experiment: HDAC activity assay (HDAC Fluorimetric Assay/Drug Discovery Kit); assay type: biochemical, human; conditions: HDAC-containing HeLa cell nuclear fraction, 37°C for 1 hour, various concentrations; FIG. 2
Experimental: To verify whether the activity of histone deacetylase (HDAC) was inhibited by compounds composed of the synthesized SAHA derivatives and polyamides attached to each other, an HDAC Fluorimetric Assay/Drug Discovery Kit (BIOMOL international) was used in the experiment. Although details followed the instructions of the kit manufacturer, an HDAC-containing HeLa cell (human uterine cervical cancer cell line) nuclear fraction was added to an acetylation substrate and incubated at 37° C. for 1 hour in the presence of various concentrations of the synthesized compounds or trichostatin A (hereinafter referred to as TSA) used as a positive control, followed by addition of the developer included in the kit to stop the HDAC-catalyzed reaction. Then, the samples were transferred to a 96-well assay plate and measured with ARVO EX (Perkin Elmer) for emission at 460 nm from the reaction product upon excitation at 360 nm.

[6] = system: SW480 (human large bowel cancer cell line); experiment: Cell proliferation assay (WST-8) on SW480 cells; assay type: cell-based; conditions: SW480, 72 hours, FIG. 4
Experimental: as §1, §4, §3

p16 protein expression = experiment: Western blotting of p16 protein in HeLa cells; assay type: cell-based, human; conditions: 48 hours, various concentrations, α-tubulin internal standard, FIG. 7
Experimental: After being cultured for 48 hours in the presence of various concentrations of polyamide, HeLa cells were harvested and lysed again in an extraction buffer containing 20 mM Tris-HCl (pH 7.5), 150 mM NaCl, 1 mM EDTA, 1% Nonidet P-40 and Complete Protease Inhibitor Cocktail Tablets (Roche), and then centrifuged at 13,500×g at 4° C. for 15 minutes. The resulting supernatants were supplemented with a sample buffer solution (2ME+, ×4) (Wako Pure Chemical Industries, Ltd., Japan) to give samples. These samples were developed on a 15% polyacrylamide gel, electrically transferred to a polyvinylidene difluoride membrane (Millipore Corporation, USA), and then blocked with 5% skimmed milk for the purpose of preventing non-specific binding. The primary antibodies used for target protein detection were purified anti-human p16INK4 monoclonal antibody (BD bioscience) for p16 and α-tubulin (TU-02) (SANTA CRUZ) for α-tubulin used as an internal standard. […] After antibody labeling, the membrane was developed with Immobilon western (MILLIPORE) and then detected by Las-4000 mini (Fuji Photo Film Co., Ltd., Japan). The area and intensity of each band were determined by Multigauge (Fuji Photo Film Co., Ltd., Japan) and quantified in comparison with a 50% DMSO-treated control, which was set to 100%.

CN(C)CCCNC(=O)CCNC(=O)c1cc(NC(=O)c2nc(NC(=O)c3nc(NC(=O)CCNC(=O)c4cc(NC(=O)c5nc(NC(=O)CCCNC(=O)c6cc(NC(=O)c7nc(NC(=O)CCNC(=O)c8cc(NC(=O)c9cc(NC(=O)c%10nc(NC(=O)CCNC(=O)CCNC(=O)c%11ccc(NC(=O)CCCCCCC(=O)NO)cc%11)cn%10C)cn9C)cn8C)cn7C)cn6C)cn5C)cn4C)cn3C)cn2C)cn1C [SAHA+p16 PIP, SAHA-ββImPyPyβImPyγImPyβImImPyβDp]
suppression of HeLa cell proliferation ([1]; WST-8, FIG. 3, FIG. 4): high antitumor effect
suppression of HeLa cell proliferation ([1]; WST-8, FIG. 3, FIG. 4, listed as p16 PIP attached to the SAHA derivative): proliferation inhibition; also recorded: inhibit proliferation
ability to suppress proliferation, compared among the 4 cancer cell lines (HeLa) ([1]; FIG. 4): high
expression level of p16 at the transcription level [2]: significant increase
suppression of RKO cell proliferation at 100 nM ([3]; 100 nM, 72 hours, FIG. 4): not suppressed
inhibition of RKO cell proliferation ([3]; 72 hours, WST-8, FIG. 4): inhibit proliferation
ability to suppress proliferation, compared among the 4 cancer cell lines (RKO) ([3]; FIG. 4, listed as p16 PIP attached to the SAHA derivative): high and lowest
suppression of LOVO cell proliferation at 100 nM ([4]; 100 nM, FIG. 4): not suppressed
inhibition of LOVO cell proliferation ([4]; WST-8, FIG. 4): inhibit proliferation
anti-HDAC activity [5]: confirmed to have anti-HDAC activity
inhibition of SW480 cell proliferation [6]: inhibit proliferation
expression of p16 at the protein level (p16 protein expression): enhanced the expression

— US20110160399A1, “HISTONE MODIFICATION INHIBITOR SPECIFIC TO TARGET GENE” (NIHON UNIVERSITY, priority 2008, published 2011)
